Experimental data reported in patent US20240317722A1, “HETEROARYL-3-PIPERIDINEDIONE COMPOUND AND USE THEREOF” (Medshine Discovery Inc., priority 2021, published 2024).
Like-named read-outs stand apart in the source and are kept apart here. Values belong to the compound of their own block, whether it stands above or below them.

Legend:
[1] = Pharmacokinetics of compounds in mice; assay type: in vivo, C57BL/6N mice; conditions: for bioavailability / clearance / Vd / half-life: male, C57BL/6N, mouse, plasma; for bioavailability: read-out: Bioavailability F; for Vd: read-out: Apparent volume of distribution; for half-life: read-out: Elimination half-life (converted)
Text: In this study, C57BL/6N male mice were selected as the test animals, and the LC/MS/MS method was used to quantitatively determine the drug concentration in the plasma of mice intravenously or orally administered the test compounds, so as to evaluate the pharmacokinetic profile of the test compounds in mice.
C57BL/6N mice (male, 20-30 g, 7-10 weeks old, Beijing Vital River).
A clear solution or suspension of the test compound was intravenously injected into C57BL/6N mice (fasted overnight) via tail or given to C57BL/6N mice (fasted overnight) by gavage. For intravenous injection administration, blood was collected from the cheek at 0 h (before administration) and 0.083, 0.25, 0.5, 1, 2, 4, 6, 8, and 24 h after administration. Each sample was collected about 0.05 mL. Heparin sodium was added to anti-coagulate. Plasma samples were collected and placed on wet ice, and centrifuged within 1 hour to separate the plasma (centrifugation conditions: 6000 g, 3 minutes, 2-8° C.). Blood samples were stored in a −80° C. refrigerator before analysis; For oral gavage administration, blood was collected from the cheek at 0 h (before administration) and 0.083, 0.25, 0.5, 1, 2, 4, 6, 8, 24 h after administration. Each sample was collected about 0.05 mL. Heparin sodium was added to anti-coagulate. Plasma samples were collected and placed on wet ice, and centrifuged within 1 hour to separate the plasma (centrifugation conditions: 6000 g, 3 minutes, 2-8° C.). Blood samples were stored in a −80° C. refrigerator before analysis. Through blood drug concentration data at different time points, Phoenix WinNonlin8.2.0 was used to calculate pharmacokinetic parameters, providing parameters such as AUC0-t, AUC0-∞, MRT0-∞, Cmax, Tmax, and T1/2, etc. and their mean and standard deviation.

[2] = system: human triple-negative breast cancer MDA-MB-231 cells; test: In vivo pharmacodynamic study, subcutaneous xenograft tumor Balb/c nude mouse model of MDA-MB-231 cells; parameters: species or system Balb/c nude mice; conditions: for Tumor volume (Day 0): Day 0 (grouping); for in vivo efficacy on the xenograft tumor model (in words): MDA-MB-231 xenograft, oral
Experimental: Cell culture: Human triple-negative breast cancer MDA-MB-231 cells (ATCC-HTB-26) were cultured in monolayer in vitro. The culture conditions were RPMI-1640 medium with 10% fetal bovine serum in an incubator at 37° C. and 5% CO2. Conventional digestion with trypsin-EDTA was performed once every two days for passage. When the cell saturation was 80%-90% and the number met the requirement, the cells were collected, counted, and inoculated.
Assay animals: Balb/c nude mice, female, 6 weeks old upon arrival, purchased from Shanghai Bikai Experimental Animal Co., Ltd.
Cell inoculation: 0.2 mL (5×10^6 cells) of MDA-MB-231 cells (with matrigel, v/v 1:1) were subcutaneously inoculated into the right back of each mouse. The grouping for administration was started when the average tumor volume reached 110 mm^3. One dosing cycle was seven days, with administration once a day and an interval of 24 hours. The test compound was administered orally for a total of four cycles. The dosages of test compound WX005 were 10 mg/kg, 30 mg/kg and 100 mg/kg respectively, and the dosage of WX013 was 30 mg/kg respectively. Tumor diameter was measured twice a week with a vernier caliper. Tumor volume was calculated by the following formula: V=0.5a×b^2, where a and b are the long and short diameters of the tumor, respectively. The anti-tumor efficacy of compounds was evaluated by TGI (%) or relative tumor proliferation rate T/C (%). Relative tumor proliferation rate T/C (%)=TRTV/CRTV×100% (TRTV: average RTV of the treatment group; CRTV: average RTV of the negative control group). The relative tumor volume (RTV) was calculated based on the results of tumor measurement by the calculation formula: RTV=Vt/V0, where V0 is the tumor volume measured at grouping for administration (i.e., D0), and Vt is the tumor volume at a certain measurement, and TRTV and CRTV are taken on the same day.

[3] = administration by gavage, 10 mg/kg

Area under the plasma concentration-time curve (0-inf) [1, 3]: 40.90 µM·h
Peak concentration [1, 3]: 3.06 µM
Time to peak [1, 3]: 2.67 h
Area under the plasma concentration-time curve (0-inf) ([1]; intravenous injection, 2 mg/kg): 37.03 µM·h
bioavailability ([1]; PO 10 mg/kg vs IV 2 mg/kg): 22.1%
clearance ([1]; intravenous injection, 2 mg/kg): 1.84 mL/min/kg
Vd ([1]; intravenous injection, 2 mg/kg): 0.44 L/kg
half-life ([1]; intravenous injection, 2 mg/kg): 307 min
SMILES: COCCOc1cc(NC(=O)NCc2ccc3c(C4CCC(=O)NC4=O)noc3c2)cc(Cl)c1C (centres unmarked) [WX013]
Tumor volume (Day 0) ([2]; 30 mg/kg orally once a day): 108.69 mm^3
Relative tumor proliferation rate T/C (Day 27) ([2]; 30 mg/kg orally once a day): 0%
TGI (Day 27) ([2]; 30 mg/kg orally once a day): 114.97%
Tumor volume (Day 27) ([2]; 30 mg/kg orally once a day): 0 mm^3
in vivo efficacy on the xenograft tumor model (in words) [2]: significant tumor shrinkage effect

Area under the plasma concentration-time curve (0-inf) [1, 3]: 108.89 µM·h
Peak concentration [1, 3]: 23.27 µM
Time to peak [1, 3]: 1.00 h
Area under the plasma concentration-time curve (0-inf) ([1]; intravenous injection, 1 mg/kg): 14.34 µM·h
bioavailability ([1]; PO 10 mg/kg vs IV 1 mg/kg): 75.9%
clearance ([1]; intravenous injection, 1 mg/kg): 2.3 mL/min/kg
Vd ([1]; intravenous injection, 1 mg/kg): 0.35 L/kg
half-life ([1]; intravenous injection, 1 mg/kg): 163 min
SMILES: COCCOc1cc(NC(=O)NCc2ccc3c(C4CCC(=O)NC4=O)coc3c2)cc(Cl)c1C (centres unmarked) [WX005]
Tumor volume (Day 0) ([2]; 10 mg/kg orally once a day): 108.29 mm^3
Relative tumor proliferation rate T/C (Day 27) ([2]; 10 mg/kg orally once a day): 0%
TGI (Day 27) ([2]; 10 mg/kg orally once a day): 114.91%
Tumor volume (Day 27) ([2]; 10 mg/kg orally once a day): 0 mm^3
in vivo efficacy on the xenograft tumor model (in words) [2]: significant tumor shrinkage effect
